≈ marks a conversion by molar mass, not a printed value. Like-named read-outs stand apart in the source and are kept apart here.
System: MDRAB
Experiment: MIC determination, microdilution broth method
Format: cell-based, Acinetobacter baumannii
[1] = single use, 20 MDRABs, EA=10% ethanol extract
[2] = single use, 20 MDRABs, EA=water extract
[3] = single use, 20 MDRABs, section of the 95% ethanol extract

Protocol: Determination methods of a Minimal Inhibitory Concentration (MIC) and a Minimum Bactericidal Concentration (MBC) of a test product: the MIC and the MBC of the Pithecellobium clypearia Benth water or ethanol extract to the MDRAB are determined by a microdilution broth method. And it is operated by referring to the microdilution broth method recommended by National Committee for Clinical Laboratory Standards (NCCLS).

C[C@H]1COc2c(N3CCN(C)CC3)c(F)cc3c(=O)c(C(=O)O)cn1c23 [LVX, Levofloxacin]
MIC (Acinetobacter baumannii, strain A12, single use, EA=water extract, read-out: MIC): 32 mg/L (≈ 88.6 µM) | MIC (Acinetobacter baumannii, strain A13, EA=60% ethanol extract, read-out: MIC): 32 mg/L (≈ 88.6 µM) | MIC (Acinetobacter baumannii, strain A13, EA=95% ethanol extract, read-out: MIC): 32 mg/L (≈ 88.6 µM) | MIC (Acinetobacter baumannii, strain A13, EA=P. clypearia 95% ethanol extract, read-out: single-use MIC): 32 mg/L (≈ 88.6 µM) | MIC (Acinetobacter baumannii, strain A13, single use, EA=10% ethanol extract, read-out: MIC): 32 mg/L (≈ 88.6 µM) | MIC (Acinetobacter baumannii, strain A13, single use, EA=water extract, read-out: MIC): 32 mg/L (≈ 88.6 µM) | MIC (Acinetobacter baumannii, strain A14, EA=60% ethanol extract, read-out: MIC): 16 mg/L (≈ 44.3 µM) | MIC (Acinetobacter baumannii, strain A14, EA=95% ethanol extract, read-out: MIC): 16 mg/L (≈ 44.3 µM) | MIC (Acinetobacter baumannii, strain A14, EA=P. clypearia 95% ethanol extract, read-out: single-use MIC): 16 mg/L (≈ 44.3 µM) | MIC (Acinetobacter baumannii, strain A14, single use, EA=10% ethanol extract, read-out: MIC): 16 mg/L (≈ 44.3 µM) | MIC (Acinetobacter baumannii, strain A14, single use, EA=water extract, read-out: MIC): 16 mg/L (≈ 44.3 µM) | MIC (Acinetobacter baumannii, strain A15, EA=60% ethanol extract, read-out: MIC): 32 mg/L (≈ 88.6 µM) | MIC (Acinetobacter baumannii, strain A15, EA=95% ethanol extract, read-out: MIC): 32 mg/L (≈ 88.6 µM) | MIC (Acinetobacter baumannii, strain A15, EA=P. clypearia 95% ethanol extract, read-out: single-use MIC): 32 mg/L (≈ 88.6 µM) | MIC (Acinetobacter baumannii, strain A15, single use, EA=10% ethanol extract, read-out: MIC): 32 mg/L (≈ 88.6 µM) | MIC (Acinetobacter baumannii, strain A15, single use, EA=water extract, read-out: MIC): 32 mg/L (≈ 88.6 µM) | MIC (Acinetobacter baumannii, strain A16, EA=60% ethanol extract, read-out: MIC): 8 mg/L (≈ 22.1 µM) | MIC (Acinetobacter baumannii, strain A16, EA=95% ethanol extract, read-out: MIC): 8 mg/L (≈ 22.1 µM) | MIC (Acinetobacter baumannii, strain A16, EA=P. clypearia 95% ethanol extract, read-out: single-use MIC): 8 mg/L (≈ 22.1 µM) | MIC (Acinetobacter baumannii, strain A16, single use, EA=10% ethanol extract, read-out: MIC): 8 mg/L (≈ 22.1 µM) | MIC (Acinetobacter baumannii, strain A16, single use, EA=water extract, read-out: MIC): 8 mg/L (≈ 22.1 µM) | MIC (Acinetobacter baumannii, strain A17, EA=60% ethanol extract, read-out: MIC): 16 mg/L (≈ 44.3 µM) | MIC (Acinetobacter baumannii, strain A17, EA=95% ethanol extract, read-out: MIC): 16 mg/L (≈ 44.3 µM) | MIC (Acinetobacter baumannii, strain A17, EA=P. clypearia 95% ethanol extract, read-out: single-use MIC): 16 mg/L (≈ 44.3 µM) | MIC (Acinetobacter baumannii, strain A17, single use, EA=10% ethanol extract, read-out: MIC): 16 mg/L (≈ 44.3 µM) | MIC (Acinetobacter baumannii, strain A17, single use, EA=water extract, read-out: MIC): 16 mg/L (≈ 44.3 µM) | MIC (Acinetobacter baumannii, strain A18, EA=60% ethanol extract, read-out: MIC): 8 mg/L (≈ 22.1 µM) | MIC (Acinetobacter baumannii, strain A18, EA=95% ethanol extract, read-out: MIC): 8 mg/L (≈ 22.1 µM) | MIC (Acinetobacter baumannii, strain A18, EA=P. clypearia 95% ethanol extract, read-out: single-use MIC): 8 mg/L (≈ 22.1 µM) | MIC (Acinetobacter baumannii, strain A18, single use, EA=10% ethanol extract, read-out: MIC): 8 mg/L (≈ 22.1 µM) | MIC (Acinetobacter baumannii, strain A18, single use, EA=water extract, read-out: MIC): 8 mg/L (≈ 22.1 µM) | MIC (Acinetobacter baumannii, strain A19, EA=60% ethanol extract, read-out: MIC): 16 mg/L (≈ 44.3 µM) | MIC (Acinetobacter baumannii, strain A19, EA=95% ethanol extract, read-out: MIC): 16 mg/L (≈ 44.3 µM) | MIC (Acinetobacter baumannii, strain A19, EA=P. clypearia 95% ethanol extract, read-out: single-use MIC): 16 mg/L (≈ 44.3 µM) | MIC (Acinetobacter baumannii, strain A19, single use, EA=10% ethanol extract, read-out: MIC): 16 mg/L (≈ 44.3 µM) | MIC (Acinetobacter baumannii, strain A19, single use, EA=water extract, read-out: MIC): 16 mg/L (≈ 44.3 µM) | MIC (Acinetobacter baumannii, strain A20, EA=60% ethanol extract, read-out: MIC): 16 mg/L (≈ 44.3 µM) | MIC (Acinetobacter baumannii, strain A20, EA=95% ethanol extract, read-out: MIC): 16 mg/L (≈ 44.3 µM) | MIC (Acinetobacter baumannii, strain A20, EA=P. clypearia 95% ethanol extract, read-out: single-use MIC): 16 mg/L (≈ 44.3 µM) | MIC (Acinetobacter baumannii, strain A20, single use, EA=10% ethanol extract, read-out: MIC): 16 mg/L (≈ 44.3 µM) | MIC (Acinetobacter baumannii, strain A20, single use, EA=water extract, read-out: MIC): 16 mg/L (≈ 44.3 µM) | MIC (Acinetobacter baumannii, strain AS, EA=P. clypearia 95% ethanol extract, read-out: single-use MIC): 4 mg/L (≈ 11.1 µM) | MIC50 (Acinetobacter baumannii, single use, 20 MDRABs, section of the 60% ethanol extract, read-out: MIC50): 8 mg/L (≈ 22.1 µM) | MIC90 (Acinetobacter baumannii, single use, 20 MDRABs, section of the 60% ethanol extract, read-out: MIC90): 32 mg/L (≈ 88.6 µM) | MIC50 (MDRABs, EA=60% ethanol extract): 8 mg/L (≈ 22.1 µM) | MIC90 (MDRABs, EA=60% ethanol extract): 32 mg/L (≈ 88.6 µM) | MIC Range (MDRABs, EA=60% ethanol extract): 0.5 to 32 mg/L | MIC50 (MDRABs, EA=95% ethanol extract): 8 mg/L (≈ 22.1 µM) | MIC90 (MDRABs, EA=95% ethanol extract): 32 mg/L (≈ 88.6 µM) | MIC Range (MDRABs, EA=95% ethanol extract): 0.5 to 32 mg/L | MIC50 [1]: 8 mg/L (≈ 22.1 µM) | MIC90 [1]: 32 mg/L (≈ 88.6 µM) | MIC Range [1]: 0.5 to 32 mg/L | MIC50 [2]: 8 mg/L (≈ 22.1 µM) | MIC90 [2]: 32 mg/L (≈ 88.6 µM) | MIC Range [2]: 0.5 to 32 mg/L | MIC50 [3]: 8 mg/L (≈ 22.1 µM) | MIC90 [3]: 32 mg/L (≈ 88.6 µM)

Reference: US11793849B2, “Method of Chinese herbal medicine extract used for treating multiple diseases caused by drug resistant bacteria infection” (priority 2016, dated 2023)
